Assay results from patent publication US12679824B2 (Hoffmann-La Roche Inc., priority 2020, dated 2026).

Test system: Acinetobacter baumannii ATCC17961
Assay: 90% Growth Inhibitory Concentration (IC90) determination, antimicrobial susceptibility testing
Type: cell-based
Conditions: Acinetobacter baumannii, ATCC17961, 16 h, Acinetobacter baumannii ATCC17961; Iso-Sensitest broth; growth by optical density at 600 nm over 16h; concentration inhibiting 90% of the growth; read-out: ATCC 17961 IC90
Experimental: Antimicrobial Susceptibility Testing:
90% Growth Inhibitory Concentration (IC90) Determination
The in vitro antimicrobial activity of the compounds was determined according to the following procedure:
The assay used a 10-points Iso-Sensitest broth medium to measure quantitatively the in vitro activity of the compounds against Acinetobacter baumannii ATCC17961.
Stock compounds in DMSO were serially twofold diluted (e.g. range from 50 to 0.097 μM final concentration) in 384 wells microtiter plates and inoculated with 49 μl the bacterial suspension in Iso-Sensitest medium to have a final cell concentration of ~5×10^(5) CFU/ml in a final volume/well of 50 ul/well. Microtiter plates were incubated at 35±2° C.
Bacterial cell growth was determined with the measurement of optical density at λ=600 nm each 20 minutes over a time course of 16h. Growth inhibition was calculated during the logarithmic growth of the bacterial cells with determination of the concentration inhibiting 50% (IC50) and 90% (IC90) of the growth.
Table 1 provides the 90% growth inhibitory concentrations (IC90) in micromoles per liter of the compounds of present invention obtained against the strain Acinetobacter baumannii ATCC17961.

IC90 [nM]	Compound
950	COc1cc(-n2cc(-c3cnc(C(=O)Nc4ccc(C(=O)N5CCN(C(=O)C6CCNCC6)CC5)c(Cl)c4)n3C)c(C(F)(F)F)n2)ccn1 [Example Z73, N-[3-chloro-4-(4-isonipecotoylpiperazine-1-carbonyl)phenyl]-5-[1-(2-methoxy-4-pyridyl)-3-(trifluoromethyl)pyrazol-4-yl]-1-methyl-imidazole-2-carboxamide]
240	Cn1c(-c2cn(-c3ccccn3)nc2C(F)(F)F)cnc1C(=O)Nc1ccc(C(=O)N2CCN(C(=O)C3CCNCC3)CC2)c(Cl)c1 [Example A11, N-[3-chloro-4-[4-(piperidine-4-carbonyl)piperazine-1-carbonyl]phenyl]-1-methyl-5-[1-(2-pyridyl)-3-(trifluoromethyl)pyrazol-4-yl]imidazole-2-carboxamide]
400	Cn1c(-c2cn(-c3ccc(N)cn3)nc2C(F)(F)F)cnc1C(=O)Nc1ccc(C(=O)NCc2cc[nH]n2)c(Cl)c1 [Example I2, 5-[1-(5-amino-2-pyridyl)-3-(trifluoromethyl)pyrazol-4-yl]-N-[3-chloro-4-(1H-pyrazol-3-ylmethylcarbamoyl)phenyl]-1-methyl-imidazole-2-carboxamide]
650	C[C@H]1NCCN(C(=O)c2ccc(NC(=O)c3ncc(-c4cn(-c5ccc(N)cn5)nc4C(F)(F)F)n3C)cc2Cl)[C@H]1C [Example Z68, 5-[1-(5-amino-2-pyridyl)-3-(trifluoromethyl)pyrazol-4-yl]-N-[3-chloro-4-[(2S,3R)-2,3-dimethylpiperazine-1-carbonyl]phenyl]-1-methyl-imidazole-2-carboxamide]
1220	Cn1c(-c2cn(-c3cc(F)ncc3N)nc2C(F)(F)F)cnc1C(=O)Nc1ccc(C(=O)N2CCN(C(=O)C3CCNCC3)CC2)c(Cl)c1 [Example Z83, 5-[1-(5-amino-2-fluoro-4-pyridyl)-3-(trifluoromethyl)pyrazol-4-yl]-N-[3-chloro-4-[4-(piperidine-4-carbonyl)piperazine-1-carbonyl]phenyl]-1-methyl-imidazole-2-carboxamide]
800	Cn1c(-c2cn(-c3ccnc(Cl)c3)nc2C(F)(F)F)cnc1C(=O)Nc1ccc(C(=O)N2CCN(C(=O)C3CCNCC3)CC2)c(Cl)c1 [Example Z50, N-[3-chloro-4-(4-isonipecotoylpiperazine-1-carbonyl)phenyl]-5-[1-(2-chloro-4-pyridyl)-3-(trifluoromethyl)pyrazol-4-yl]-1-methyl-imidazole-2-carboxamide]
520	CNc1ccc(-n2cc(-c3cnc(C(=O)Nc4ccc(C(=O)N5CCN(C(=O)[C@H]6NCC[C@@H]6O)CC5)c(Cl)c4)n3C)c(C(F)(F)F)n2)nc1 [Example D4, N-[3-chloro-4-[4-[(2S,3S)-3-hydroxypyrrolidine-2-carbonyl]piperazine-1-carbonyl]phenyl]-1-methyl-5-[1-[5-(methylamino)-2-pyridyl]-3-(trifluoromethyl)pyrazol-4-yl]imidazole-2-carboxamide]
680	Cn1cnc(-n2cc(-c3cnc(C(=O)Nc4ccc(C(=O)N5CCN(C(=O)C6CCNCC6)CC5)c(Cl)c4)n3C)c(C(F)(F)F)n2)c1 [Example E4, N-[3-chloro-4-[4-(piperidine-4-carbonyl)piperazine-1-carbonyl]phenyl]-1-methyl-5-[1-(1-methylimidazol-4-yl)-3-(trifluoromethyl)pyrazol-4-yl]imidazole-2-carboxamide]
370	Cn1c(-c2cn(-c3ccc(N)cn3)nc2C(F)(F)F)cnc1C(=O)Nc1ccc(C(=O)N2CCC3(CCNC3)CC2)c(Cl)c1 [Example Z8, 5-[1-(5-amino-2-pyridyl)-3-(trifluoromethyl)pyrazol-4-yl]-N-[3-chloro-4-(2,8-diazaspiro[4.5]decane-8-carbonyl)phenyl]-1-methyl-imidazole-2-carboxamide]
1290	Cn1c(-c2cn(-c3ccc(N)cn3)nc2C(F)(F)F)cnc1C(=O)Nc1ccc(C(=O)N2CCNC(C)(C)C2)c(Cl)c1 [Example Z57, 5-[1-(5-amino-2-pyridyl)-3-(trifluoromethyl)pyrazol-4-yl]-N-[3-chloro-4-(3,3-dimethylpiperazine-1-carbonyl)phenyl]-1-methyl-imidazole-2-carboxamide]
660	Cn1c(-c2cn(-c3ccc(N)cn3)nc2C(F)(F)F)cnc1C(=O)Nc1ccc(C(=O)NCC2CCN(C(=O)C3CCNCC3)CC2)c(Cl)c1 [Example C7, 5-[1-(5-amino-2-pyridyl)-3-(trifluoromethyl)pyrazol-4-yl]-N-[3-chloro-4-[[1-(piperidine-4-carbonyl)-4-piperidyl]methylcarbamoyl]phenyl]-1-methyl-imidazole-2-carboxamide]
350	C[C@@H]1CNC[C@H](C)N1C(=O)c1ccc(NC(=O)c2ncc(-c3cn(-c4ccc(N)cn4)nc3C(F)(F)F)n2C)cc1Cl [Example Z54, 5-[1-(5-amino-2-pyridyl)-3-(trifluoromethyl)pyrazol-4-yl]-N-[3-chloro-4-[(2S,6R)-2,6-dimethylpiperazine-1-carbonyl]phenyl]-1-methyl-imidazole-2-carboxamide]
860	COc1cccc(-n2cc(-c3cnc(C(=O)Nc4ccc(C(=O)N5CCN(C(=O)C6CCNCC6)CC5)c(Cl)c4)n3C)c(C(F)(F)F)n2)n1 [Example Z31, N-[3-chloro-4-(4-isonipecotoylpiperazine-1-carbonyl)phenyl]-5-[1-(6-methoxy-2-pyridyl)-3-(trifluoromethyl)pyrazol-4-yl]-1-methyl-imidazole-2-carboxamide]
1200	COCCNc1ccnc(-n2cc(-c3cnc(C(=O)Nc4ccc(C(=O)N5CCN(C(=O)C6CCNCC6)CC5)c(Cl)c4)n3C)c(C(F)(F)F)n2)n1 [Example A19, N-[3-chloro-4-[4-(piperidine-4-carbonyl)piperazine-1-carbonyl]phenyl]-5-[1-[4-(2-methoxyethylamino)pyrimidin-2-yl]-3-(trifluoromethyl)pyrazol-4-yl]-1-methyl-imidazole-2-carboxamide]
750	Cc1cc(N)cnc1-n1cc(-c2cnc(C(=O)Nc3ccc(C(=O)N4CCN(C(=O)C5CCNCC5)CC4)c(Cl)c3)n2C)c(C(F)(F)F)n1 [Example Z81, 5-[1-(5-amino-3-methyl-2-pyridyl)-3-(trifluoromethyl)pyrazol-4-yl]-N-[3-chloro-4-[4-(piperidine-4-carbonyl)piperazine-1-carbonyl]phenyl]-1-methyl-imidazole-2-carboxamide]
510	Cn1c(-c2cn(-c3ccc(N)cn3)nc2C(F)(F)F)cnc1C(=O)Nc1ccc(C(=O)N[C@H]2CC[C@H](NC(=O)[C@@H]3C[C@@H](O)CN3)C2)c(Cl)c1 [Example Z48, 5-[1-(5-amino-2-pyridyl)-3-(trifluoromethyl)pyrazol-4-yl]-N-[3-chloro-4-[[(1S,3S)-3-[[(2S,4R)-4-hydroxyprolyl]amino]cyclopentyl]carbamoyl]phenyl]-1-methyl-imidazole-2-carboxamide]
500	COCCn1cnc(-n2cc(-c3cnc(C(=O)Nc4ccc(C(=O)N5CCN(C(=O)C6CCNCC6)CC5)c(Cl)c4)n3C)c(C(F)(F)F)n2)c1 [Example E3, N-[3-chloro-4-[4-(piperidine-4-carbonyl)piperazine-1-carbonyl]phenyl]-5-[1-[1-(2-methoxyethyl)imidazol-4-yl]-3-(trifluoromethyl)pyrazol-4-yl]-1-methyl-imidazole-2-carboxamide]

Compound	IC90 [nM]
Cn1c(-c2cn(-c3ccc(N)cn3)nc2C(F)(F)F)cnc1C(=O)Nc1ccc(C(=O)N2CC3CCCC(C2)N3)c(Cl)c1 [Example Z53, 5-[1-(5-amino-2-pyridyl)-3-(trifluoromethyl)pyrazol-4-yl]-N-[3-chloro-4-(3,9-diazabicyclo[3.3.1]nonane-3-carbonyl)phenyl]-1-methyl-imidazole-2-carboxamide]	500

Same assay, conditions: Acinetobacter baumannii, ATCC17961, 16 h, read-out: ATCC 17961 IC90

Compound	IC90 [nM]
Cn1c(-c2cn(-c3ncccn3)nc2C(F)(F)F)cnc1C(=O)Nc1ccc(C(=O)N2CCN(C(=O)C3CCN(CC4CNC4)CC3)CC2)c(Cl)c1 [Example G1, N-[4-[4-[1-(Azetidin-3-ylmethyl)piperidine-4-carbonyl]piperazine-1-carbonyl]-3-chloro-phenyl]-1-methyl-5-[1-pyrimidin-2-yl-3-(trifluoromethyl)pyrazol-4-yl]imidazole-2-carboxamide]	390
Cn1c(-c2cn(-c3ccc(N)cn3)nc2C(F)(F)F)cnc1C(=O)Nc1ccc(C(=O)NCCN)c(Cl)c1 [Example Z17, N-[4-(2-aminoethylcarbamoyl)-3-chloro-phenyl]-5-[1-(5-amino-2-pyridyl)-3-(trifluoromethyl)pyrazol-4-yl]-1-methyl-imidazole-2-carboxamide]	990
CN(C)c1cnc(-n2cc(-c3cnc(C(=O)Nc4ccc(C(=O)N5CCN(C(=O)C6CCNCC6)CC5)c(Cl)c4)n3C)c(C(F)(F)F)n2)nc1 [Example B1, N-[3-Chloro-4-[4-(piperidine-4-carbonyl)piperazine-1-carbonyl]phenyl]-5-[1-[5-(dimethylamino)pyrimidin-2-yl]-3-(trifluoromethyl)pyrazol-4-yl]-1-methyl-imidazole-2-carboxamide]	230
